± gives the expanded uncertainty stated by the source.
Key:
[1] = for surface tension liquid-gas: Maximal bubble pressure; for mass density: 100 kPa, Liquid, Vibrating tube method
[2] = xn = mol fraction of the nth substance listed; conditions: x2 = 0; for surface tension liquid-gas: Maximal bubble pressure; for mass density: 100 kPa, Liquid, Vibrating tube method

| SMILES | surface tension liquid-gas ([1]; 288.15 K) [mN/m] | mass density ([1]; 288.15 K) [kg/m3] | surface tension liquid-gas ([1]; 293.15 K) [mN/m] | mass density ([1]; 293.15 K) [kg/m3] | surface tension liquid-gas ([1]; 298.15 K) [mN/m] | mass density ([1]; 298.15 K) [kg/m3] | surface tension liquid-gas ([1]; 303.15 K) [mN/m] | mass density ([1]; 303.15 K) [kg/m3] | surface tension liquid-gas ([1]; 308.15 K) [mN/m] | mass density ([1]; 308.15 K) [kg/m3] | surface tension liquid-gas ([1]; 313.15 K) [mN/m] | mass density ([1]; 313.15 K) [kg/m3] | surface tension liquid-gas ([1]; 318.15 K) [mN/m] | mass density ([1]; 318.15 K) [kg/m3] | surface tension liquid-gas ([2]; 288.15 K) [mN/m] | mass density ([2]; 288.15 K) [kg/m3] | surface tension liquid-gas ([2]; 293.15 K) [mN/m] | mass density ([2]; 293.15 K) [kg/m3] | surface tension liquid-gas ([2]; 298.15 K) [mN/m] | mass density ([2]; 298.15 K) [kg/m3] | also measured |
| --- | --- | --- | --- | --- | --- | --- | --- | --- | --- | --- | --- | --- | --- | --- | --- | --- | --- | --- | --- | --- | --- |
| COCC[n+]1ccn(C)c1.O=S(=O)([N-]S(=O)(=O)C(F)(F)F)C(F)(F)F | 41.4 ± 4.2 | 1515.3 ± 9.4 | 41.2 ± 4.1 | 1510.15 ± 9.4 | 41 ± 4.1 | 1505.03 ± 9.4 | 40.7 ± 4.1 | 1499.92 ± 9.3 | 40.5 ± 4.1 | 1494.83 ± 9.3 | 40.3 ± 4 | 1489.77 ± 9.3 | 40.1 ± 4 | 1484.72 ± 9.2 | – | – | – | – | – | – | – |
| CCO [ethanol] + COCC[n+]1ccn(C)c1.O=S(=O)([N-]S(=O)(=O)C(F)(F)F)C(F)(F)F | – | – | – | – | – | – | – | – | – | – | – | – | – | – | 23.3 ± 2.3 | 793.91 ± 4.9 | 22.7 ± 2.3 | 789.66 ± 4.9 | 22.2 ± 2.2 | 785.73 ± 4.9 | surface tension liquid-gas ([2]; 303.15 K): 21.6 ± 2.2 mN/m; mass density ([2]; 303.15 K): 781.05 ± 4.8 kg/m3; surface tension liquid-gas ([2]; 308.15 K): 21.1 ± 2.1 mN/m; mass density ([2]; 308.15 K): 776.7 ± 4.8 kg/m3; surface tension liquid-gas ([2]; 313.15 K): 20.7 ± 2.1 mN/m; mass density ([2]; 313.15 K): 772.31 ± 4.8 kg/m3; surface tension liquid-gas ([2]; 318.15 K): 20 ± 2 mN/m; mass density ([2]; 318.15 K): 767.88 ± 4.8 kg/m3 |
| CO [methanol] | 24.4 ± 2.4 | 796.037 ± 4.9 | 23.8 ± 2.4 | 791.352 ± 4.9 | 22.9 ± 2.3 | 786.643 ± 4.9 | 22.3 ± 2.2 | 781.913 ± 4.8 | 21.8 ± 2.2 | 777.16 ± 4.8 | 21.1 ± 2.1 | 772.38 ± 4.8 | 20.5 ± 2.1 | 767.567 ± 4.8 | – | – | – | – | – | – | – |
| CO [methanol] + COCC[n+]1ccn(C)c1.O=S(=O)([N-]S(=O)(=O)C(F)(F)F)C(F)(F)F | – | – | – | – | – | – | – | – | – | – | – | – | – | – | 24.4 ± 2.4 | 796.037 ± 4.9 | 23.8 ± 2.4 | 791.352 ± 4.9 | 22.9 ± 2.3 | 786.643 ± 4.9 | surface tension liquid-gas ([2]; 303.15 K): 22.3 ± 2.2 mN/m; mass density ([2]; 303.15 K): 781.913 ± 4.8 kg/m3; surface tension liquid-gas ([2]; 308.15 K): 21.8 ± 2.2 mN/m; mass density ([2]; 308.15 K): 777.16 ± 4.8 kg/m3; surface tension liquid-gas ([2]; 313.15 K): 21.1 ± 2.1 mN/m; mass density ([2]; 313.15 K): 772.38 ± 4.8 kg/m3; surface tension liquid-gas ([2]; 318.15 K): 20.5 ± 2.1 mN/m; mass density ([2]; 318.15 K): 767.567 ± 4.8 kg/m3 |

From the NIST ThermoML archive (doi:10.1016/j.jct.2019.06.005)
